Source: article PMC8315922, “In Vitro Identification and In Vivo Confirmation of Inhibitors for Sweet Potato Chlorotic Stunt Virus RNA Silencing Suppressor, a Viral RNase III” (Journal of Virology, 2021)
Read-outs that look alike come from different tables or passages of the source.

Key:
[1] = molecular target: CSR3 (RNase III of SPCSV) (Sweet potato chlorotic stunt virus, UniProt Q8JJW8); test: Kinetic-based FRET dose-response assay (IC50, DSS); assay type: biochemical; details: for DSS Comm 1 / DSS FIMM1 / DSS FIMM 2: drug sensitivity score; for DSS Comm 1: repeat Comm 1; for DSS FIMM1: repeat FIMM 1; for DSS FIMM 2: repeat FIMM 2
Procedure: A dose-response assay with six concentrations (1.25 nM to 50 μM) was carried out in three independent experiments, which included two tests with the 112 selected FIMM compounds (i.e., compounds prepared by the HTB-FIMM) and one test using the newly ordered commercial compounds (99 of the 112 compounds, i.e., compounds prepared by a second supplier). A dose-response curve was generated for each compound based on PI values as a function of the concentration.
The HTS assay was designed based on FRET using a 22-bp siRNA (forward sequence, […]; reverse sequence, […]) with a 2-nucleotide (nt) 3′ overhang labeled with the fluorescent dye 6-carboxyfluorescein (FAM) and a black hole quencher (BHQ1) on the sense strand (Metabion, Munich, Germany). Screening was initially carried out at one concentration (10 μM) in a 20-μl reaction buffer. […] All reaction mixtures contained 50 nM CSR3 and 375 nM labeled siRNA in 384-well black flat-bottom microplates (Corning, NY, USA) and were prepared using a BioTek MultiFlo FX dispenser with single-channel random access dispenser cassettes (BioTek, Winooski, VT, USA). The plates were read with a PHERAstar FS reader (BMG Labtech, Ortenberg, Germany).
(§1) For HTS, the activity of CSR3 was calculated by measuring the change in fluorescence as a function of the reaction time using MARS Data Analysis software (BMG Labtech). To evaluate the CSR3 inhibition efficiency of individual compounds, the PI of each compound was calculated using the slope values for the sample, positive control, and negative control according to the following equation: PI = 100 × [1 − (sample − positive)/(negative − positive)]%. IC50 and DSS values were calculated using concentration-specific PI values according to a previous study ([31]). Relative gene expression was calculated using the classical 2^−ΔΔ^CT method ([63]).

CSR3 = molecular target: T1, CSR3 (Sweet potato chlorotic stunt virus, UniProt Q8JJW8); test: Binding affinity assay using MST; details: for Comments: MST behaviour of compound (V-shape response, fluorescence quenching, interference, aggregator); for Binding (Yes/No): MST binding call; for Binding (Yes/No) / Response Amplitude: Table S4; for Response Amplitude: MST response amplitude
T1 sequence (Q8JJW8 1-228): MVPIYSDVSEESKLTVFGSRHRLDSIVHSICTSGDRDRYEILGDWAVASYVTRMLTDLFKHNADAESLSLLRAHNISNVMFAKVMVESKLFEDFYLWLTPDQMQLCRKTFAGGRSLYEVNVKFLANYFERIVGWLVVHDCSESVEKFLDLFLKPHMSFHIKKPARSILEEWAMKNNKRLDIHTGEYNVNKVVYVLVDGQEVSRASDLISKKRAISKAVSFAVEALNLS
Procedure: Binding affinity assays were first carried out with the 99 commercial compounds using the MST method.
The labeled-protein solution containing 500 nM proteins and 40 nM dye was prepared in PBS buffer with 2% dimethyl sulfoxide (DMSO) for the assay. The 12 concentrations for each compound were obtained by 2-fold serial dilutions (0.2 μM to 400 μM). […] Two independent experiments were carried out in premium coated capillaries (NanoTemper, Munich, Germany) using a Monolith NT.Automated instrument (NanoTemper) with the power set at high (80%), the light-emitting diode (LED) power (pico red) set at 5%, and the on-time set at 20 s. The dissociation constant (Kd) was determined using the MO.Affinity Analysis program (NanoTemper).

SPFMV = test: Virus accumulation (RT-qPCR of coat protein RNA) in coinfected sweetpotato plants grown in culture medium: SPFMV; assay type: in vivo, Sweet potato feathery mottle virus; details: for SPFMV_FC (fold change of viral accumulation): 50 μM in culture medium, 28 days, relative to DMSO control; for SPFMV accumulation reduced / viral titer SPFMV (log2 fold change relative to controls): plants in culture medium, 50 μM
Procedure: Since tests in culture medium consume smaller amounts of compounds and can be carried out under relatively controlled conditions, sweetpotato plants coinfected with SPCSV and SPFMV were grown in medium supplemented with one of the 30 inhibitor candidates at a concentration of 50 μM. Their effects on plant growth were monitored by imaging the plants once a week. […] In addition, virus accumulation was quantified by measuring the relative abundance of the transcripts encoding viral coat proteins using RT-qPCR ([32]). The effect of individual compounds on virus accumulation was estimated by comparing treated and control plants.
Sweetpotato plants cultivar 'Huachano' (accession CIP420065) were side-graft inoculated with both SPFMV (East African strain isolate Nam1) and SPCSV-Ug (East African serotype 2) as described previously ([62]). Plantlets were propagated by taking single-node stems grown in a plant culture medium ([33]). Next, plantlets with newly formed roots were transferred to glass tubes (18 by 150 mm) containing 10 ml of medium supplemented with either 50 μM compound (diluted in DMSO; final DMSO concentration, 0.1%) or only 0.1% DMSO as a control. For plant experiments in soil, plantlets were transferred to pots (6 by 6 by 10 cm) filled with a mixture of sand, humus, and washed soil. After 1 week, plants were treated by foliar spraying using either individual compounds at a single concentration (10 μM) (treatment) or water (control/mock) twice a week for 1 month. All plants were grown at 22°C with 60% humidity and a 16-h light/8-h dark photoperiod for 28 days in culture medium and for 41 days in soil. The Finnish National Plant Phenotyping Infrastructure (NaPPI) was used to monitor plant viral disease symptoms as described in our previous study ([33]). Four compounds were tested with the phenotyping platform in two independent batches, each of which included five biological replicates.
Leaf samples were collected from plants grown in culture medium or soil for 28 or 41 days, respectively, and frozen in liquid nitrogen. Total RNA was extracted using the Spectrum plant total RNA kit (Sigma-Aldrich). First-strand cDNA was synthesized using the Transcriptor first-strand cDNA synthesis kit (Roche, Basel, Switzerland). […] All RT-qPCR experiments were conducted in triplicate on three and five biological replicates from plants grown in culture medium and soil, respectively. The primer list can be found in our previous study ([33]).
as §1

sweetpotato plants = details: 50 μM in culture medium
[2] = repeat Comm 1 (commercial compounds), 1.25 nM to 50 μM, unit inferred, numbers match nM, read-out: IC50 Comm 1
[3] = repeat FIMM 1 (FIMM library compounds), 1.25 nM to 50 μM, unit inferred, numbers match nM (cf. Fig 5A), read-out: IC50 FIMM1
[4] = repeat FIMM 2 (FIMM library compounds), 1.25 nM to 50 μM, unit inferred, numbers match nM, read-out: IC50 FIMM 2
[5] = kinetic-based HTS, Fig 5A summary
[6] = read-out: IC50 Comm 1, repeat Comm 1 (commercial compounds), 1.25 nM to 50 μM, unit inferred, numbers match nM
[7] = read-out: IC50 FIMM 2, repeat FIMM 2 (FIMM library compounds), 1.25 nM to 50 μM, unit inferred, numbers match nM

Compound | DSS Comm 1 [1] | DSS FIMM1 [1] | DSS FIMM 2 [1] | IC50 [1, 2] | IC50 [1, 3] | IC50 [1, 4] | Comments (CSR3) | Binding (Yes/No) (CSR3) | Response Amplitude (CSR3) | SPFMV_FC (fold change of viral accumulation) (SPFMV) | Toxicity (sweetpotato plants) | DSS [1, 5] | IC50 [1, 5] | IC50 [1, 6] | IC50 [1, 7] | SPFMV accumulation reduced (SPFMV) | viral titer SPFMV (log2 fold change relative to controls) (SPFMV)
O=C1c2c(O)ccc(O)c2C(=O)c2c(NCCNCCO)ccc(NCCNCCO)c21 [FIMM000490] | 16.9 | 14.9 | 15.5 | 1200 nM | 1810 nM | 1640 nM | Interference | No | 0 | 1.747 | no | – | – | – | – | – | –
O=C(O)c1ccc(C2Nc3c(Br)cccc3C3C=CCC32)cc1 (stereo not drawn) [FIMM022230] | 5.4 | 13.8 | 14.3 | – | 1860 nM | – | – | No | 68 | 0.2613 | no | 13.8 | ~1860 nM | 12000 nM | 1550 nM | ~4 fold | −1.93
Cc1ccc(C2Nc3ccc(C(=O)O)cc3C3C=CCC32)cc1 (stereo not drawn) [FIMM031755] | 7.7 | 15.9 | 16.2 | – | – | – | – | No | 0 | 0.5653 | no | 15.9 | ~1270 nM | 7380 nM | 1240 nM | ~2 fold | −0.82
COc1cc(C=C2C(=O)NC(=S)NC2=O)ccc1OCc1ccccc1[N+](=O)[O-] [FIMM101864] | 6.4 | 11.2 | 8 | 1690 nM | 3850 nM | 7240 nM | Aggregator | No | 0 | 1.376 | – | – | – | – | – | – | –
